{
  "source": "patent US20110207689A1",
  "about": "“THE TREATMENT OF HEARING LOSS” (Auckland UniServices Limited, priority 2008, published 2011)",
  "format_in_all_cases": "in vivo, Wistar rats",
  "key": {"[1]": {"experiment": "Body weight, temperature and behaviour in animals treated with ADAC (Experiment 2)", "protocol": "A. Body weight was measured immediately before noise exposure and 14 days after noise exposure. B. Rectal temperature (° C.) was measured before ADAC administration and 30 and 60 minutes after the injection. Number of animals: n=8 per group."}, "[2]": {"tested_on": "nitrotyrosine immunoreactivity in the organ of Corti", "experiment": "Nitrotyrosine (NT) immunohistochemistry of cochlea after 24 hours noise (Experiment 1)", "details": "ADAC treated cochlea versus vehicle", "protocol": "(§1) Hearing thresholds were assessed using auditory brainstem responses (ABRs) and the cellular damage was evaluated by quantitative histology (hair cell loss). ABR represents the activity of the auditory nerve and the central auditory pathways (brainstem/mid-brain regions) responding to the sound (clicks or pure tones). Nitrotyrosine marker was used for the immunohistochemical assessment of free radical damage.\nAfter overnight fixation in 4% PFA, rat cochleae were decalcified in a 5% EDTA solution for 7 days and cryoprotected in a 30% sucrose (in 0.1 M PB) solution overnight. The cochleae were snap-frozen in N-pentane, and stored at −80° C. until further processing. Frozen cochlear tissues were cryosectioned at 30 μm and transferred into 24-well plates (Nalge Nunc Int., Naperville, USA) containing the sterile 0.1M PBS, and permeabilised with 1% Triton X-100 for 1 hr. Non-specific binding sites were blocked with 10% normal goat serum (Vector Laboratories, Burlingame, Calif.). […] Tissue sections were incubated with the secondary antibody for 2 hours in the dark, then rinsed several times in PBS, mounted in fluorescence medium (DAKO Corporation, Carpinteria, Calif., USA) and screened for NT specific immunofluorescence using a confocal microscope (TCS SP2, Leica Leisertechnik GmbH, Heidelberg, Germany). […]"}, "[3]": {"tested_on": "rats exposed to 8-12 kHz band noise for 24 hours at 110 dB SPL", "experiment": "ABR threshold recovery after prolonged (24 hours) noise exposure, systemic ADAC (Experiment 1)", "details": "for recovery of ABR thresholds: 24 h noise 110 dB SPL", "protocol": "In Experiments 1 and 2, Wistar rats were exposed to noise (8-12 kHz, 110 dB SPL for 2-24 hours). ADAC was then administered to the Wistar rats at 100 μg/kg/day. The ADAC was either administered as a single injection 6 hours after noise exposure, or as a single injection 24 hours after noise exposure, or as multiple injections, with the first injection of the multiple injections being administered 6 hours after noise exposure.\nas §1\nAdenosine amine congener (ADAC) was obtained from Dr Ken Jacobson (NIH, Bethesda, USA). ADAC ([…]) was dissolved first in 100 μL of 1N HCl and then in 50 ml of 0.1 M PBS (pH 7.4), making a 50 μg/mL stock solution. This solution was aliquoted at 1 mL in eppendorf tubes, and stored at −20° C. for later use. When required, the ADAC aliquots were heated in a 37° C. water bath for 30 minutes before administration. ADAC injection dose was […] given intraperitoneally, 200 μl/100 g body weight.\nThe rats were exposed to 8-12 kHz band noise presented for 24 hours at 110 dB SPL. This was done in a custom built acoustic chamber (Shelburg Acoustics, Sydney, Australia) with internal speakers and external controls (sound generator and frequency selector). Sound intensity inside the chamber was tested using a calibrated Rion NL-40 sound level meter to ensure minimal deviations of sound intensity (110±1 dB SPL). Up to 4 rats were placed in the chamber in a standard rat cage. They were introduced to the sound chamber at 1 hour intervals so that the timing of subsequent ABRs could be kept consistent for all rats.\nABR represents the activity of the auditory nerve and the central auditory pathways (brainstem/mid-brain regions) responding to the sound (clicks or pure tones). ABRs were obtained by placing fine platinum electrodes subdermally at the mastoid region of the ear of interest (active electrode), scalp vertex (reference) and mastoid region of the opposite ear (ground electrode). A series of auditory clicks or pure tones (4-28 kHz) presented at varying intensity and thresholds generate electrical activity reflecting differing levels of auditory processing. The sound threshold of the ABR complex (waves I-IV) were determined by progressively attenuating the sound intensity until the waveform can no longer be observed.\nThe acoustic stimuli for ABR were produced and the responses recorded using a Tucker-Davis Technologies auditory physiology workstation (Alachua, Fla., USA).\nAll ABR measurements were performed in a sound attenuator chamber (Shelburg Acoustics, Sydney, Australia). Rats were anaesthetised with the mixture of Ketamine (75 mg/kg) and Xylazine (10 mg/kg) intraperitoneally, and then placed onto a heating pad, to maintain body temperature at 37° C. ABR potentials were evoked with digitally produced 5 ms tone pips (0.5 ms rise-fall time) at frequencies between 4 and 28 kHz in half-octave steps. Sound pressure level (SPL) was raised in 5 dB steps starting from 10 dB below threshold level to 90 dB SPL. Responses were averaged at each sound level (1024 repeats with stimulus polarity alternated), and response waveforms were discarded when peak-to-peak amplitude exceeded 15 μV. The ABR threshold was defined as the lowest intensity (to the nearest 5 dB) at which a response could be visually detected above the noise floor.\nABR thresholds were measured before and after noise exposure, and after ADAC/vehicle treatment. Post-noise ABR recordings were obtained 1 hour before the rats received their first ADAC or vehicle injection. […]"}},
  "note": "“Also recorded” adds a separate entry of the source.",
  "data": [
    {"smiles": "NCCNC(=O)Cc1ccc(NC(=O)Cc2ccc(Nc3ncnc4c3ncn4[C@@H]3O[C@H](CO)[C@@H](O)[C@H]3O)cc2)cc1", "note": "[ADAC, adenosine amine congener]", "values": [
      {"measurement": "overt behavioural changes", "setting": "[1]; ADAC 100 μg/kg", "result": "did not induce overt behavioural changes"},
      {"measurement": "body weight", "setting": "[1]; ADAC 100 μg/kg, before noise exposure and 14 days after", "result": "did not induce overt behavioural changes in rats or alterations in body weight"},
      {"measurement": "signs of systemic toxicity (loss of body weight, feeding or drinking behaviour, hypothermia)", "setting": "[1]; ADAC treatment", "result": "No signs of systemic toxicity"},
      {"measurement": "body temperature (rectal)", "setting": "[1]; before and 30 and 60 minutes after ADAC 100 μg/kg injection", "result": "remained stable"},
      {"measurement": "NT immunostaining in the cochlea", "setting": "[2]", "result": "very little NT immunostaining; also recorded: reduced in the ADAC treated cochlea to a background level"},
      {"measurement": "effect on threshold recovery", "setting": "[3]; ADAC administration 24 hours after noise exposure, FIG. 3", "result": "less pronounced"},
      {"measurement": "recovery of ABR thresholds at all pure tone frequencies", "setting": "[3]; chronic treatment (5 days, five injections every 24 hours commencing 6 hours post-noise), 100 μg/kg i.p.", "result": "22-28 dB"},
      {"measurement": "highest recovery of ABR thresholds (mean ± SEM)", "setting": "[3]; group that received multiple injections of ADAC (FIGS. 4 and 5), follows sentence on auditory clicks", "result": 29, "unit": "dB"},
      {"measurement": "best recovery of hearing thresholds", "setting": "[3]; prolonged ADAC treatment (5 injections), FIG. 4", "result": "< 25", "unit": "dB"},
      {"measurement": "lowest recovery of ABR thresholds (mean ± SEM)", "setting": "[3]; single ADAC injection 24 hours after noise exposure (FIGS. 3 and 5), follows sentence on auditory clicks", "result": "8±2", "unit": "dB"},
      {"measurement": "recovery of ABR thresholds", "setting": "[3]; single injection ADAC 100 μg/kg i.p. 24 hours after noise exposure", "result": "5-12 dB"},
      {"measurement": "recovery of ABR thresholds", "setting": "[3]; single injection ADAC 100 μg/kg i.p., early treatment 6 hours after noise", "result": "17-26 dB"},
      {"measurement": "threshold recovery versus control group", "setting": "[3]; single injection of ADAC 6 hours after noise exposure, pure tones and auditory clicks, p<0.05, p<0.01", "result": "statistically significant difference between the groups in the level of recovery"}
    ]}
  ]
}
